{
  "source": "patent US20220009920A1",
  "about": "(GB005, Inc., priority 2020, published 2022)",
  "experiment_in_all_cases": "Large panel kinase profiling",
  "type_in_all_cases": "biochemical",
  "settings_in_all_cases": "1 μM test article, 1 mM ATP",
  "key": {"MAPK14/P38A": {"target": "T1, MAPK14/P38A (Homo sapiens, UniProt Q16539)", "T1 construct": "AssayQuant Technologies, Inc. (service provider)", "T1 sequence (Q16539 2-360 limits assumed)": "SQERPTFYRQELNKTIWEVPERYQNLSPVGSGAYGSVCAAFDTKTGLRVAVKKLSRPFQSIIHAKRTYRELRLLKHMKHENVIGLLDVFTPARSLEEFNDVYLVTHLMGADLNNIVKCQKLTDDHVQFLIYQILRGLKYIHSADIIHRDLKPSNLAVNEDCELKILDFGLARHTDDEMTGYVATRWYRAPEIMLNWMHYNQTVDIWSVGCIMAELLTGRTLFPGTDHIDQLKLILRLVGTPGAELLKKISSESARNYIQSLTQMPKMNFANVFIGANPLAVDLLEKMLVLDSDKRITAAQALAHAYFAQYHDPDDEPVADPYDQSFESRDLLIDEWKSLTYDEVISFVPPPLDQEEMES", "in_short": "(§1)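 Fluorescence intensity (Ex 360 nm, Em 485 nm) was monitored continuously, once per minute, in PhosphoSens CSox-Sensor kinase reactions held at 30° C. Compound was present at 1 μM and ATP at 1 mM.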"}, "PAK3": {"target": "PAK3 (Homo sapiens, UniProt O75914)", "in_short": "as §1"}, "ERN1": {"target": "ERN1 (Homo sapiens, UniProt O75460)", "in_short": "as §1"}, "CAMK1G": {"target": "CAMK1G (Homo sapiens, UniProt Q96NX5)", "sequence (Q96NX5 whole entry)": "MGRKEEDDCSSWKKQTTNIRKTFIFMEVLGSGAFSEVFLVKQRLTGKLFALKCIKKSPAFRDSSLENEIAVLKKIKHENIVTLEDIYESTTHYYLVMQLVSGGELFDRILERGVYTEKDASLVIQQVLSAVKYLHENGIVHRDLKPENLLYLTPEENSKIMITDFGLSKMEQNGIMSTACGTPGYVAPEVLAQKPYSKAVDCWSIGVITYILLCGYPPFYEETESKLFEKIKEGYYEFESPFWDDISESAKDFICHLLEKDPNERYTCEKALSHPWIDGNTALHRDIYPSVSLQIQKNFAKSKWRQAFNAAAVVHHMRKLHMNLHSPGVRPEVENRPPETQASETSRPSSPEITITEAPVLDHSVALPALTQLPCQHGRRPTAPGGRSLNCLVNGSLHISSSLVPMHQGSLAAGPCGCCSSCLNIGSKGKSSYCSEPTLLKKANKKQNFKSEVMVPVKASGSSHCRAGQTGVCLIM", "in_short": "as §1"}, "CHEK2/CHK2": {"target": "T2, CHEK2/CHK2 (Homo sapiens, UniProt O96017)", "T2 construct": "AssayQuant Technologies, Inc. (ran the panel)", "in_short": "as §1"}, "CAMK1A": {"target": "CAMK1A (Homo sapiens, UniProt Q14012)", "sequence (Q14012 whole entry)": "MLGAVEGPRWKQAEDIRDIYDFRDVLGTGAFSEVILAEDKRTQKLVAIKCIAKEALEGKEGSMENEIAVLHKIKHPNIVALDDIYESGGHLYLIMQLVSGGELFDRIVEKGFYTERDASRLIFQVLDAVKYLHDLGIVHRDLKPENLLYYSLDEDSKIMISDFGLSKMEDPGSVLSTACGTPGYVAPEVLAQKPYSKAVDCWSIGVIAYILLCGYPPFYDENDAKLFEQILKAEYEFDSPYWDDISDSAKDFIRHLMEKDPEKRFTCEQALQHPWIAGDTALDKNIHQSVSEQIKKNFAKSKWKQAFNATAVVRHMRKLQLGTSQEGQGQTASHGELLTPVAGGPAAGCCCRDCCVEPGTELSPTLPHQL", "in_short": "as §1"}, "EIF2AK3/PEK": {"target": "T3, EIF2AK3/PEK (Homo sapiens, UniProt Q9NZJ5)", "T3 sequence (Q9NZJ5 30-1116)": "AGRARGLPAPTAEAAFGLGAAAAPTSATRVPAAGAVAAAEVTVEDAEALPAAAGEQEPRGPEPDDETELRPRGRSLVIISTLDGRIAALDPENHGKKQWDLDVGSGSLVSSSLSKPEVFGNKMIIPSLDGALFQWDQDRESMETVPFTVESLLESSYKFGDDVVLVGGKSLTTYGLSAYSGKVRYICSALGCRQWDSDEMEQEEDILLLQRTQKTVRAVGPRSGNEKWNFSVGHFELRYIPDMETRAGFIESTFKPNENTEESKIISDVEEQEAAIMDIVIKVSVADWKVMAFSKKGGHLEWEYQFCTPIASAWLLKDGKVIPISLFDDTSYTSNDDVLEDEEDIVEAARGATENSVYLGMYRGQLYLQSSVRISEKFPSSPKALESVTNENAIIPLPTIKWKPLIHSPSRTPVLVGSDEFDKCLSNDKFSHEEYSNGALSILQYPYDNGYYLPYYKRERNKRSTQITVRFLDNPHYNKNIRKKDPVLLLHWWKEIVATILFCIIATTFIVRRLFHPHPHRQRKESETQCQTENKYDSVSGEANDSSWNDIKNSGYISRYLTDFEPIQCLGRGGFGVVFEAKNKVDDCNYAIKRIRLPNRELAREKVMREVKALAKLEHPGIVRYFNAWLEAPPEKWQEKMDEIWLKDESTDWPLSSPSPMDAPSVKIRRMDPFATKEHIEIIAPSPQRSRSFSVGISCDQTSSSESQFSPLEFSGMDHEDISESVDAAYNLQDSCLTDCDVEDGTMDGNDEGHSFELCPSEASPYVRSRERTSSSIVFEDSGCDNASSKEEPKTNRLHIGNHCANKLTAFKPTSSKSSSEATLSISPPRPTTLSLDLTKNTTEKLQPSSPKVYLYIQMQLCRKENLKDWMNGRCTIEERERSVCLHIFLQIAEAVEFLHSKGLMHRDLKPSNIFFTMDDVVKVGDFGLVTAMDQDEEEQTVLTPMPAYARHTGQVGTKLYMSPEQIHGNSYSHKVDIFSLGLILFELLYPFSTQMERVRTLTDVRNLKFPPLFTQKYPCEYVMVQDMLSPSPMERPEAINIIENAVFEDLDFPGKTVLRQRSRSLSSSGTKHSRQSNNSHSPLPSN", "in_short": "as §1"}, "RPS6KA5/MSK1": {"target": "T4, RPS6KA5/MSK1 (Homo sapiens, UniProt O75582)", "T4 construct": "AssayQuant Technologies, Inc. (contract assay)", "T4 sequence (O75582 whole entry)": "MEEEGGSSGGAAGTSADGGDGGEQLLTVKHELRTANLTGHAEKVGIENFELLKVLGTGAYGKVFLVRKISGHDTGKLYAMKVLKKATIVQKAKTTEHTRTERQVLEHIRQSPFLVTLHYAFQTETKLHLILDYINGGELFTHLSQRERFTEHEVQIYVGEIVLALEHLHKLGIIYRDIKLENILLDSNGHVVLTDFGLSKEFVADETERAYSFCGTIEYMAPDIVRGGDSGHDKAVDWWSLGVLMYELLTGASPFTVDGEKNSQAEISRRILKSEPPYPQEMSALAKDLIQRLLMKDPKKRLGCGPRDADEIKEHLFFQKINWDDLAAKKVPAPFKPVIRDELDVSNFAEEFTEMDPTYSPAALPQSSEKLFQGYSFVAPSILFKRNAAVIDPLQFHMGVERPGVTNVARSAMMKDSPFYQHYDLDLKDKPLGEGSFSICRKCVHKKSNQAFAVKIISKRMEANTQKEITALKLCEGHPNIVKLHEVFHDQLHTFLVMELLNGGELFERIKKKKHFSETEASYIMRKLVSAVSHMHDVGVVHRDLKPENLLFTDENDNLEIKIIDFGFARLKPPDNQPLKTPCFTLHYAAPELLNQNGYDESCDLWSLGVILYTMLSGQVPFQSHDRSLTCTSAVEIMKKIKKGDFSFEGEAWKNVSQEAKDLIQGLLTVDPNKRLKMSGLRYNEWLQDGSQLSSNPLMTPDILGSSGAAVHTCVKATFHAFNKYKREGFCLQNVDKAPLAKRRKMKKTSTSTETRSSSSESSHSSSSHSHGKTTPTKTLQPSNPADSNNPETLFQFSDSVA", "in_short": "as §1"}, "PIM2": {"target": "PIM2 (Homo sapiens, UniProt Q9P1W9)", "sequence (Q9P1W9 whole entry, species assumed)": "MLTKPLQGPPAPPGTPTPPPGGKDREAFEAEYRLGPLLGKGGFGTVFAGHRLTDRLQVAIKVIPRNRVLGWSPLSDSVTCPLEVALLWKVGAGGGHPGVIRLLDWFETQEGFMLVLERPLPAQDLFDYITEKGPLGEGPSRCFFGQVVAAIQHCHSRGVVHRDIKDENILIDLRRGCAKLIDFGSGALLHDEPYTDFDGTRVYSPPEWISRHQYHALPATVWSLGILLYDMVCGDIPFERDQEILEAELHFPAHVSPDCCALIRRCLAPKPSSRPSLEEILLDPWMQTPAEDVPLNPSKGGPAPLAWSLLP", "in_short": "as §1"}, "RPS6KA3/RSK2": {"target": "T5, RPS6KA3/RSK2 (Homo sapiens, UniProt P51812)", "T5 construct": "AssayQuant Technologies, Inc. (contract assay)", "in_short": "as §1"}, "MAP4K5/KSH1": {"target": "T6, MAP4K5/KSH1 (Homo sapiens, UniProt Q9Y4K4)", "T6 construct": "AssayQuant Technologies, Inc. (service provider)", "T6 sequence (Q9Y4K4 whole entry)": "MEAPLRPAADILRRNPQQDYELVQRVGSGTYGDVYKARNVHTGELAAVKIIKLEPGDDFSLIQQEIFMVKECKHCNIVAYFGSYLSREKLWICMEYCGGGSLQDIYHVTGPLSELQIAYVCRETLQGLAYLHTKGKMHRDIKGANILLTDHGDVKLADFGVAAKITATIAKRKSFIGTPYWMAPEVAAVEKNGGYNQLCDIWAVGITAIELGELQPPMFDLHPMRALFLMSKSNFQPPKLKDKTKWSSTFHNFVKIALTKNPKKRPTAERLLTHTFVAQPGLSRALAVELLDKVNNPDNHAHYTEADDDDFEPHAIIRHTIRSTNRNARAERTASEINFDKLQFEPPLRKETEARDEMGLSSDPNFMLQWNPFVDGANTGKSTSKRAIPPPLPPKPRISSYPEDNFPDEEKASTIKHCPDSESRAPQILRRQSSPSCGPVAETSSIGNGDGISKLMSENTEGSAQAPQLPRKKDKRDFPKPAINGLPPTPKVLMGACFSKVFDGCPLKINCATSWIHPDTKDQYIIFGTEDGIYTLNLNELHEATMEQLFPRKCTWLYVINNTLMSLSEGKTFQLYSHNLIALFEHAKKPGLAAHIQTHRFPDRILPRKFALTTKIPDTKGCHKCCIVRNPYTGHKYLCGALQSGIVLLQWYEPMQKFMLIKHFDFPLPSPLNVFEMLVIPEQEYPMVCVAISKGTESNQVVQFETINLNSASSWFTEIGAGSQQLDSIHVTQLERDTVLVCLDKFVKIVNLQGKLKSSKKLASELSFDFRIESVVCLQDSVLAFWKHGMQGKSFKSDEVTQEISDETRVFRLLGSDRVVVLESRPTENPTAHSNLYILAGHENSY", "in_short": "as §1"}, "FLT1": {"target": "T7, FLT1 (Homo sapiens, UniProt P17948)", "T7 construct": "AssayQuant Technologies, Inc. (service provider)", "in_short": "as §1"}, "MAP4K4/HGK": {"target": "T8, MAP4K4/HGK (Homo sapiens, UniProt O95819)", "T8 construct": "AssayQuant Technologies, Inc. (service provider)", "in_short": "as §1"}, "CLK3": {"target": "T9, CLK3 (Homo sapiens, UniProt P49761)", "T9 construct": "AssayQuant Technologies, Inc. (service laboratory)", "T9 sequence (P49761 whole entry, species assumed)": "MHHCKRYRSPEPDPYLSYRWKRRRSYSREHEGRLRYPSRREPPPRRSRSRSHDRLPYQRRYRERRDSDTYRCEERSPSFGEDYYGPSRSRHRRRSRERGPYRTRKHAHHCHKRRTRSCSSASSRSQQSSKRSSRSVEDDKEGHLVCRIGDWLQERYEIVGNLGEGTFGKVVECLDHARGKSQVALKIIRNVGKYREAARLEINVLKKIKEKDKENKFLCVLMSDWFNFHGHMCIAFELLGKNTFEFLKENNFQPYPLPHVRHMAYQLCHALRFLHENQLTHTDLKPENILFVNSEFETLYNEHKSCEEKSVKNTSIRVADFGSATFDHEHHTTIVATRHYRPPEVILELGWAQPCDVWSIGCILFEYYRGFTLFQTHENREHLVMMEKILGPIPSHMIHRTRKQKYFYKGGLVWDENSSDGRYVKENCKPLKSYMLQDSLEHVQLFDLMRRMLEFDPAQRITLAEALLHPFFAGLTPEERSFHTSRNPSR", "in_short": "as §1"}, "MAP4K1/HPK1": {"target": "T10, MAP4K1/HPK1 (Homo sapiens, UniProt Q92918)", "T10 construct": "AssayQuant Technologies, Inc. (service provider)", "T10 sequence (Q92918 whole entry)": "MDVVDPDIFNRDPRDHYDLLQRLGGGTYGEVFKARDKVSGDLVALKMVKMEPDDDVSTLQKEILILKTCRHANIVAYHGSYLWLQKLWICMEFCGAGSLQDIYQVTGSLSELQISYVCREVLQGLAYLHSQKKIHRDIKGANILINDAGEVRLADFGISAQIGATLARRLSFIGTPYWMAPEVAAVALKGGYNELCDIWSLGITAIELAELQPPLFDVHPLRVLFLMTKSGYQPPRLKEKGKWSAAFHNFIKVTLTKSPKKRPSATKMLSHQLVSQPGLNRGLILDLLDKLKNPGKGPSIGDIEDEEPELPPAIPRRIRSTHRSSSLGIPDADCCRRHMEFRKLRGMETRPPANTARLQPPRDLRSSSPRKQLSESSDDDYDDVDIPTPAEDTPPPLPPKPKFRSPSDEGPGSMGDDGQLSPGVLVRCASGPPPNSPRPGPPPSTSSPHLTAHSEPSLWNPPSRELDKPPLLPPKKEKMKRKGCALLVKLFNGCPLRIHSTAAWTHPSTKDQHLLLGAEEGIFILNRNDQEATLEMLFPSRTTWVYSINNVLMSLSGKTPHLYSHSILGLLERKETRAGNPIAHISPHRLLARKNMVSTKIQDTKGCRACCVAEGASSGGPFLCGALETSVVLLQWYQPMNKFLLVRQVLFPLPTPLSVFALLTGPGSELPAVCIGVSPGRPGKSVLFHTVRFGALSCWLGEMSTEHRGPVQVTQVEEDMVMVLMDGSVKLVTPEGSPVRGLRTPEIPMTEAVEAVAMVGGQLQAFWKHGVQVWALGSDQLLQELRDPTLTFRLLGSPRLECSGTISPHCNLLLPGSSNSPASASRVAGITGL", "in_short": "as §1"}, "PRKCB1/PKCB1": {"target": "PRKCB1/PKCB1 (Homo sapiens, UniProt P05771)", "in_short": "as §1"}, "LCK": {"target": "LCK (Homo sapiens, UniProt P06239)", "sequence (P06239 whole entry, species assumed)": "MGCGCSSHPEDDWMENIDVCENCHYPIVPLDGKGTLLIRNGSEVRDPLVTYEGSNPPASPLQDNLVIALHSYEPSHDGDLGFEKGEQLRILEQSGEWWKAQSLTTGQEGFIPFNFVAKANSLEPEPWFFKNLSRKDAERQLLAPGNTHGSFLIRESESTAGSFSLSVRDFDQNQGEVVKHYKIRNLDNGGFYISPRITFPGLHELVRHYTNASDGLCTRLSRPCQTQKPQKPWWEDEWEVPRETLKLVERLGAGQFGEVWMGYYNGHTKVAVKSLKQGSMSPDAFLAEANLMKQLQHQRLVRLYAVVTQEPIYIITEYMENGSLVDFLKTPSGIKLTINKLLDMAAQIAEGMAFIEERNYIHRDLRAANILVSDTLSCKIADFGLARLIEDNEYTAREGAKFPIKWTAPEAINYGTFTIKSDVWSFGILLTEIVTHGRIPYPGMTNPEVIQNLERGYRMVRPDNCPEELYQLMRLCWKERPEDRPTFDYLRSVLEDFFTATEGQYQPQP", "in_short": "as §1"}},
  "data": [
    {"smiles": "C=CC(=O)N1CCCC(c2c(F)cc(C(N)=O)c3[nH]c4c(c23)CCCCC4)C1", "note": "(single isomer, unassigned) [Compound 5-6]", "values": [
      {"measurement": "inhibition at 1 µM", "setting": "MAPK14/P38A", "result": -8.3, "unit": "%"},
      {"measurement": "inhibition at 1 µM", "setting": "PAK3", "result": 5.4, "unit": "%"},
      {"measurement": "inhibition at 1 µM", "setting": "ERN1", "result": -5.4, "unit": "%"},
      {"measurement": "inhibition at 1 µM", "setting": "CAMK1G", "result": 15.6, "unit": "%"},
      {"measurement": "inhibition at 1 µM", "setting": "CHEK2/CHK2", "result": 0.6, "unit": "%"},
      {"measurement": "inhibition at 1 µM", "setting": "CAMK1A", "result": 24.4, "unit": "%"},
      {"measurement": "inhibition at 1 µM", "setting": "EIF2AK3/PEK", "result": -9.2, "unit": "%"},
      {"measurement": "inhibition at 1 µM", "setting": "RPS6KA5/MSK1", "result": -20.7, "unit": "%"},
      {"measurement": "inhibition at 1 µM", "setting": "PIM2", "result": 2.5, "unit": "%"},
      {"measurement": "inhibition at 1 µM", "setting": "RPS6KA3/RSK2", "result": 5.8, "unit": "%"},
      {"measurement": "inhibition at 1 µM", "setting": "MAP4K5/KSH1", "result": -1.1, "unit": "%"},
      {"measurement": "inhibition at 1 µM", "setting": "FLT1", "result": 12.1, "unit": "%"},
      {"measurement": "inhibition at 1 µM", "setting": "MAP4K4/HGK", "result": -22.7, "unit": "%"},
      {"measurement": "inhibition at 1 µM", "setting": "CLK3", "result": -29.3, "unit": "%"},
      {"measurement": "inhibition at 1 µM", "setting": "MAP4K1/HPK1", "result": -3.2, "unit": "%"},
      {"measurement": "inhibition at 1 µM", "setting": "PRKCB1/PKCB1", "result": 8.6, "unit": "%"},
      {"measurement": "inhibition at 1 µM", "setting": "LCK", "result": 0.2, "unit": "%"}
    ]},
    {"smiles": "C=CC(=O)N1CCC[C@@H](c2c(F)cc(C(N)=O)c3[nH]c4c(c23)CCC4)C1", "note": "[Compound 10-2, (S)-8-(1-acryloylpiperidin-3-yl)-7-fluoro-1,2,3,4-tetrahydrocyclo-penta[b]indole-5-carboxamide]", "values": [
      {"measurement": "inhibition at 1 µM", "setting": "MAPK14/P38A", "result": 5, "unit": "%"},
      {"measurement": "inhibition at 1 µM", "setting": "PAK3", "result": 21.7, "unit": "%"},
      {"measurement": "inhibition at 1 µM", "setting": "ERN1", "result": -2.9, "unit": "%"},
      {"measurement": "inhibition at 1 µM", "setting": "CAMK1G", "result": 9.7, "unit": "%"},
      {"measurement": "inhibition at 1 µM", "setting": "CHEK2/CHK2", "result": -9.2, "unit": "%"},
      {"measurement": "inhibition at 1 µM", "setting": "CAMK1A", "result": 7.9, "unit": "%"},
      {"measurement": "inhibition at 1 µM", "setting": "EIF2AK3/PEK", "result": -3.5, "unit": "%"},
      {"measurement": "inhibition at 1 µM", "setting": "RPS6KA5/MSK1", "result": -14.5, "unit": "%"},
      {"measurement": "inhibition at 1 µM", "setting": "PIM2", "result": 3.3, "unit": "%"},
      {"measurement": "inhibition at 1 µM", "setting": "RPS6KA3/RSK2", "result": -27.7, "unit": "%"},
      {"measurement": "inhibition at 1 µM", "setting": "MAP4K5/KSH1", "result": -4.9, "unit": "%"},
      {"measurement": "inhibition at 1 µM", "setting": "FLT1", "result": 8.6, "unit": "%"},
      {"measurement": "inhibition at 1 µM", "setting": "MAP4K4/HGK", "result": -10.5, "unit": "%"},
      {"measurement": "inhibition at 1 µM", "setting": "CLK3", "result": -19.2, "unit": "%"},
      {"measurement": "inhibition at 1 µM", "setting": "MAP4K1/HPK1", "result": 0.8, "unit": "%"},
      {"measurement": "inhibition at 1 µM", "setting": "PRKCB1/PKCB1", "result": -9.4, "unit": "%"},
      {"measurement": "inhibition at 1 µM", "setting": "LCK", "result": 18.3, "unit": "%"}
    ]},
    {"smiles": "C=CC(=O)N1CCC[C@@H](c2c(F)cc(C(N)=O)c3[nH]c4c(c23)CC2(CC4)CC2)C1", "note": "[Compound 6-2, (S)-5-(1-acryloylpiperidin-3-yl)-6-fluoro-1,2,4,9-tetrahydrospiro[carbazole-3,1′-cyclopropane]-8-carboxamide]", "values": [
      {"measurement": "inhibition at 1 µM", "setting": "MAPK14/P38A", "result": 28.2, "unit": "%"},
      {"measurement": "inhibition at 1 µM", "setting": "PAK3", "result": 10.2, "unit": "%"},
      {"measurement": "inhibition at 1 µM", "setting": "ERN1", "result": 3.1, "unit": "%"},
      {"measurement": "inhibition at 1 µM", "setting": "CAMK1G", "result": 19.6, "unit": "%"},
      {"measurement": "inhibition at 1 µM", "setting": "CHEK2/CHK2", "result": -14.1, "unit": "%"},
      {"measurement": "inhibition at 1 µM", "setting": "CAMK1A", "result": 34.5, "unit": "%"},
      {"measurement": "inhibition at 1 µM", "setting": "EIF2AK3/PEK", "result": -18.5, "unit": "%"},
      {"measurement": "inhibition at 1 µM", "setting": "RPS6KA5/MSK1", "result": -4.2, "unit": "%"},
      {"measurement": "inhibition at 1 µM", "setting": "PIM2", "result": 10.9, "unit": "%"},
      {"measurement": "inhibition at 1 µM", "setting": "RPS6KA3/RSK2", "result": -34.6, "unit": "%"},
      {"measurement": "inhibition at 1 µM", "setting": "MAP4K5/KSH1", "result": 4.1, "unit": "%"},
      {"measurement": "inhibition at 1 µM", "setting": "FLT1", "result": 20.7, "unit": "%"},
      {"measurement": "inhibition at 1 µM", "setting": "MAP4K4/HGK", "result": 2.9, "unit": "%"},
      {"measurement": "inhibition at 1 µM", "setting": "CLK3", "result": -0.1, "unit": "%"},
      {"measurement": "inhibition at 1 µM", "setting": "MAP4K1/HPK1", "result": 16.3, "unit": "%"},
      {"measurement": "inhibition at 1 µM", "setting": "PRKCB1/PKCB1", "result": 8.9, "unit": "%"},
      {"measurement": "inhibition at 1 µM", "setting": "LCK", "result": 15.9, "unit": "%"}
    ]}
  ]
}
